From patent US20070275911A1, “Targeted Drug-Formaldehyde Conjugates and Methods of Making and Using the Same” (priority 2003, published 2007)
pIC50: −log10 of the molar value. Like-named read-outs stand apart in the source and are kept apart here.

Experiments:
Rtx-6 cells = experiment: Growth inhibition of Rtx-6 cells, 4 h treatment; type: cell-based
Procedure: Effect of DOX-TEG-TAM on AEBS-negative Rtx-6 breast cancer cells: Rtx-6 cells, kindly provided by Dr. Marc Poirot (Toulouse, France), were evaluated as an AEBS-negative control cell line. […] The Rtx-6 cells were utilized to determine the effect of the absence of AEBS on the cytotoxicity and uptake of DOX, DOXSF, and DOX-TEG-TAM.
The IC50's are compared in Table 6 with those previously determined for MCF-7, MCF-7/Adr, MDA-MB-231 and MDA-MB-435 cells. The concentrations inhibiting 50% of cell growth following 4 h treatment with DOX, DOXSP, and DOX-TEG-TAM were 200 nM, 60 nM, and 70 nM, respectively.
Growth inhibition of Rtx-6 cells: The concentration inhibiting half the growth (IC50) was determined as previously described with minor modifications.

MCF-7 cells = experiment: Uptake and release by flow cytometry; type: cell-based, human; conditions: for drug uptake (DOX fluorophore): MCF-7, 500 nM, up to 1 h
Procedure: Uptake and release of DOX, DOXSF, and DOX-TEG-TAM: The uptake and release of DOX-TEG-TAM in breast cancer cells relative to DOX and untargeted DOXSF was performed as described with modifications. Breast cancer cells in log phase growth were dissociated with trypsin-EDTA, counted, resuspended in media at 1.5×10^5 cells/mL, and plated into six well plates (450,000 cells/well) and allowed to adhere overnight. The cells were treated with 0.5 μM DOX, DOXSF, or DOX-TEG-TAM for various amounts of time (20 min, 40 min, and 60 min). Drug treatment was accomplished by addition of 30 μL of 100× drug solution (50 μM) to 3 mL of media which was mixed and immediately added to the cells. For each time point, the media was removed, cells were trypsinized, and trypsinization was quenched with 3 mL phenol red-free RPMI 1640 media (no serum) at 4° C. Cells were pelleted by centrifugation at 300 g for 5 min at 10° C. The supernatant was decanted and the cells were re-suspended in 1 mL serum- and phenol red-free RPMI 1640 media and placed on ice.
For drug retention samples, the cells were treated for 1 h with 0.5 μM DOX, DOXSF, or DOX-TEG-TAM. Following drug treatment, the media was removed and replaced with 3 mL fresh, 37° C., full (containing serum and phenol red indicator) cell media and the cells were incubated for various times (0.5 h, 1 h, 3 h, and 6 h). Following the allotted release times, the cells were prepared as described above. Drug treatment was performed such that all cell samples would be prepared within 2 h.
The extent of drug uptake and retention was measured by flow cytometry. Cells were analyzed with excitation at 488 nm (15 mW Ar ion laser), with emission monitored between 570 and 600 nm. Instrument settings were optimized for each cell line and held constant for all experiments; 10,000 cells were analyzed for anthracycline fluorescence. The data are presented as the mean fluorescence for each condition with the background, drug-free cell fluorescence subtracted.

[1] = test system: PC-3 prostate cancer cells; experiment: Cytotoxicity, crystal violet colony assay (Example 1); type: cell-based; conditions: for pIC50: PC-3, 4 h treatment, read-out: IC50 cancer cell growth inhibition
MCF-7/ADR = experiment: as above; type: cell-based, human; conditions: for pIC50: 4 h treatment, read-out: IC50 cancer cell growth inhibition
Procedure: (§1) This cell suspension was dispensed in 200 μL aliquots into 96-well tissue culture plates. Plates were then incubated for 24 h at 37° C. in a humidified atmosphere of 5% CO2 and 95% air. The medium was replaced with 180 μL of growth medium prior to addition of the prodrug. Doxsaliform was dissolved in DMSO containing 1% glacial acetic acid at concentrations ranging from 1 mM to 10 mM and sterile-filtered through a 0.45 μm nylon centrifuge filter. The concentration was then corrected by measuring the solution absorbance at 480 nm (ε=11 500 L/(mol·cm). Serial dilutions (1:10) were made in sterile DMSO to yield seven solutions of decreasing drug concentration at 100× the respective working concentrations. The resulting solutions were individually diluted 1:10 in RPMI 1640; 20 μL of the resulting 10× solution was immediately added to the appropriate lane of cells. Additionally, two lanes were treated with 20 μL growth medium containing 10% sterile DMSO and one lane was treated with 200 μL of 1.5 M Tris buffer. The cells were incubated at 37° C. for 4 h, at which time the drug solutions were replaced with 200 μL of fresh growth medium. […] The extent of colony formation was determined using a crystal violet staining assay.
(§2) The biological activities of several of the N-Mannich base derivatives were determined by their in vitro cytotoxicity against MCF-7 and MCF-7/ADR human breast cancer derived cell lines. While MCF-7 cells are sensitive to doxorubicin, the MCF-7/ADR cell line is an MCF-7 derivative which is characterized by its marked resistance to doxorubicin.

MCF-7 = experiment: as above; type: cell-based, human; conditions: for pIC50: MCF-7, 4 h treatment, read-out: IC50 cancer cell growth inhibition
Procedure: as §1, §2

MDA-MB-435 cells = experiment: Uptake of DOX, DOXSF and acyclic-RGD-4C-DOXSF by flow cytometry; type: cell-based, human; conditions: for RFU with 100 nM drug / RFU with 500 nM drug / RFU with 1000 nM drug: no additional Mn2+
Procedure: MDA-MB435 breast cancer cells in log phase growth were dissociated with trypsin-EDTA, counted, resuspended in media at 2×10^5 cells/mL, and plated into six-well plates (5.0×10^5 cells/well) and allowed to adhere overnight. Drug solutions of DOX, DOXSF, and ayclic-RGD-4C-DOXSF were prepared in DMSO with 1% acetic acid at 50 μM. Before treatment with drug, cell media was removed, cells were washed with HBSS (0.5 mL), and then fresh cell media, with or without 500 μM Mn^2+, was placed into the wells (2 mL). […] For each time point, the cell media was removed, cells were washed with HBSS, trypsinized, and trypsinization was quenched with 5 mL of cell media at 4° C. Cells were pelleted by centrifugation at 200 g for 5 min at 10° C. The supernatant was decanted, and the cells were resuspended in 5 mL of D-PBS at 4° C., repelleted, resuspended in 2 mL of D-PBS at 4° C., and placed on ice. […] The amount of drug uptake was measured by flow cytometry. Cells were analyzed with excitation at 488 nm (15 mW Ar ion laser), with emision monitored between 570 and 600 nm. Instrument settings were optimized for the cell line and held constant for all experiments; 10,000 cells were analyzed for each sample's anthracycline fluorescence. The data are presented as the mean fluorescence for each condition divided by the background, drug-free mean fluorescence.
Concentration of targeted drug relative to DOX and DOXSF in cells was determined from emission of the DOX fluorophore.

CC/C(=C(/c1ccc(O)cc1)c1ccc(OCCN(C)CCOCCOCCO/N=C/c2ccc(O)c(C(=O)NCN[C@H]3C[C@H](O[C@H]4C[C@](O)(C(=O)CO)Cc5c(O)c6c(c(O)c54)C(=O)c4c(OC)cccc4C6=O)O[C@@H](C)[C@H]3O)c2)cc1)c1ccccc1 [11c, E/Z-N-(2-Hydroxy-5-{[2-(2-{2-[(2-{4-[1-(4-hydroxy-phenyl)-2-phenyl-but-1-enyl]-phenoxy}-ethyl)-methyl-amino]-ethoxy}-ethoxy)-ethoxyimino]-methyl}-benzamide)-doxorubicin]
pIC50 (Rtx-6 cells): 7.15
drug uptake (DOX fluorophore) (MCF-7 cells): 25 RFU
uptake relative to MDA-MB-435 cells (MCF-7 cells; MCF-7, 1 h, 500 nM): about 25%
fluorophore retention (MCF-7 cells; MCF-7, drug release after 6 h): highest level of doxorubicin fluorophore retention

COc1cccc2c1C(=O)c1c(O)c3c(c(O)c1C2=O)C[C@@](O)(C(=O)CO)C[C@@H]3O[C@H]1C[C@H](N)[C@H](O)[C@H](C)O1 [doxorubicin, reference compound]
pIC50 [1]: 6.52
pIC50 (Rtx-6 cells): 6.70
drug uptake (DOX fluorophore) (MCF-7 cells): 5 RFU
pIC50 (MCF-7/ADR; Homo sapiens, NCI/ADR-RES): 5.10
pIC50 (MCF-7; Homo sapiens, MCF7): 6.52
RFU with 100 nM drug (MDA-MB-435 cells; 30 min): 1.23 RFU
RFU with 500 nM drug (MDA-MB-435 cells; 30 min): 2.12 RFU
RFU with 1000 nM drug (MDA-MB-435 cells; 30 min): 3.21 RFU
fold uptake more than acyclic-RGD-4C-DOXSF (MDA-MB-435 cells; 1 h drug treatment): 3 fold
RFU with 100 nM drug (MDA-MB-435 cells; 4 h): 1.90 RFU
RFU with 500 nM drug (MDA-MB-435 cells; 4 h): 5.88 RFU
RFU with 1000 nM drug (MDA-MB-435 cells; 4 h): 12.03 RFU

COc1cccc2c1C(=O)c1c(O)c3c(c(O)c1C2=O)C[C@@](O)(C(=O)CO)C[C@@H]3O[C@H]1C[C@H](NCNC(=O)c2ccccc2O)[C@H](O)[C@H](C)O1 [doxsaliform, N-(2-Hydroxybenzamido-methyl)-doxorubicin]
pIC50 [1]: 7.10
DOX/doxsaliform ([1]; PC-3, fold increase in cytotoxicity, 4 h drug treatment): 4
pIC50 (Rtx-6 cells): 7.22
drug uptake (DOX fluorophore) (MCF-7 cells): 16 RFU
pIC50 (MCF-7/ADR): 6.10
DOX/doxsaliform (MCF-7/ADR; fold increase in cytotoxicity, 4 h drug treatment): 10
pIC50 (MCF-7): 7.10
DOX/doxsaliform (MCF-7; MCF-7, fold increase in cytotoxicity, 4 h drug treatment): 4
RFU with 100 nM drug (MDA-MB-435 cells; 30 min): 1.88 RFU
RFU with 500 nM drug (MDA-MB-435 cells; 30 min): 5.55 RFU
RFU with 1000 nM drug (MDA-MB-435 cells; 30 min): 9.23 RFU
fold uptake higher than acyclic-RGD-4C-DOXSF and DOX (MDA-MB-435 cells; 4 h, 500 nM): 2 fold
RFU with 100 nM drug (MDA-MB-435 cells; 4 h): 3.23 RFU
RFU with 500 nM drug (MDA-MB-435 cells; 4 h): 13.25 RFU
RFU with 1000 nM drug (MDA-MB-435 cells; 4 h): 24.51 RFU
